In patent US10087188B2, “Benzamide imidazopyrazine Btk inhibitors” (MERCK SHARP & DOHME CORP., priority 2014, dated 2018):
Like-named read-outs stand apart in the source and are kept apart here.

Legend:
[1] = target: BTK enzyme (recombinant full-length BTK, hBTK) (Homo sapiens (Human), UniProt Q06187); assay: Btk enzyme activity assay, LANCE TR-FRET; type: biochemical; settings: 50 pM hBTK, 2 μM biotin-A5-peptide, 25 μM ATP; 60 minute compound & enzyme incubation; read-out: BTK binding IC50
Experimental: Btk Enzyme Activity Assay Methods
BTK enzymatic activity was determined with the LANCE (Lanthanide Chelate Excite) TR-FRET (Time-resolved fluorescence resonance energy transfer) assay. […] After 60 minutes incubation with detection reagents, reaction plates were read on a PerkinElmer EnVision plate reader using standard TR-FRET protocol.

[2] = test system: HeLa cells; assay: [3H] Adenosine uptake assay; type: cell-based; settings: accumulation of tritiated adenosine into HeLa cells, compound concentration range 10 μM to 0.032 nM, read-out: ADU inhibition IC50 (adenosine uptake inhibition potency)
Procedure, shortened: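 Accumulation of tritiated adenosine in adherent HeLa cells, detected by scintillant-plate coincidence counting, gives IC50 via 4-parameter robust fit. Compound (constant 0.25% DMSO) applied 30 min ahead, then 60 min radiolabel exposure (added from 500 nM solution), ambient conditions, HBSS with 5% FBS.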

Chain of BTK enzyme (recombinant full-length BTK, hBTK) (Q06187 whole entry): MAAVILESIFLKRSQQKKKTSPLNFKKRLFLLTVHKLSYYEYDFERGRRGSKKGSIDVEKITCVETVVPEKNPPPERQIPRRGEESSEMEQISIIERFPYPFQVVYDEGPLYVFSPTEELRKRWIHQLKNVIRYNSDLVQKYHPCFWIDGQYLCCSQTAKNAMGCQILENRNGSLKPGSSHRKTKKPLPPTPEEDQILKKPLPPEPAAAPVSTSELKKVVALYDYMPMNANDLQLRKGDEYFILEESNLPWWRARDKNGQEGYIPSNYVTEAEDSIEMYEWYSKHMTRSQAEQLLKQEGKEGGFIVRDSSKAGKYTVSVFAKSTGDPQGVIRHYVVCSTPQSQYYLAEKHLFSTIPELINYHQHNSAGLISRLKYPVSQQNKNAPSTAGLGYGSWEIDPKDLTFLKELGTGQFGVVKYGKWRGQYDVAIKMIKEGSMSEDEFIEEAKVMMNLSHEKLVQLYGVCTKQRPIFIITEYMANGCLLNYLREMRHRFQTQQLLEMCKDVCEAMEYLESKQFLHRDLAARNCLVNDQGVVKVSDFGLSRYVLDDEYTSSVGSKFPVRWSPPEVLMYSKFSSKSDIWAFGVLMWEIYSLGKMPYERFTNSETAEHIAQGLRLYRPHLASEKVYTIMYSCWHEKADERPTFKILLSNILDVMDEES

Molecule `COc1cc(C(=O)Nc2cc(C(F)(F)F)ccn2)ccc1-c1nc([C@H]2CN(C3CCC(C)(C(=O)O)CC3)CCO2)n2ccnc(N)c12` (stereo partly drawn) [Example 180, 4-{(2R)-2-[8-amino-1-(2-methoxy-4-{[4-(trifluoromethyl)pyridin-2-yl]carbamoyl}phenyl)imidazo [1,5-a]pyrazin-3-yl]morpholin-4-yl}-1-methylcyclohexanecarboxylic acid] has an IC50 [1] of 0.0013 µM, an IC50 ([2]; Homo sapiens, HeLa) of 6.42 µM and an IC50 [2] of 3.94 µM.

`CN1CC[C@@H](c2nc(-c3ccc(C(=O)Nc4cc(C(F)(F)F)ccn4)cc3)c3c(N)nccn23)C[C@H]1C(=O)O` [Example 82, (2S,4R)-4-[8-amino-1-(4-{[4-(trifluoromethyl)pyridin-2-yl]carbamoyl}phenyl)imidazo[1,5-a]pyrazin-3-yl]-1-methylpiperidine-2-carboxylic acid] was tested, and the IC50 [1] was 0.0012 µM and the IC50 ([2]; Homo sapiens, HeLa) was 1.73 µM.

`C[C@H]1CO[C@@H](c2nc(-c3ccc(C(=O)Nc4cc(C(F)(F)F)ccn4)cc3)c3c(N)nccn23)CN1C(=O)C12CC(C(=O)O)(C1)C2` [Example 175, 3-((2R,5S)-2-(8-amino-1-(4-((4-(trifluoromethyl)pyridin-2-yl)carbamoyl)phenyl)imidazo[1,5-a]pyrazin-3-yl)-5-methylmorpholine-4-carbonyl)bicyclo[1.1.1]pentane-1-carboxylic acid] was tested, and the IC50 [1] was 0.00037 µM and the IC50 ([2]; Homo sapiens, HeLa) was 10 µM.

`CCOc1cc(C(=O)Nc2cc(C(F)(F)F)n(C)n2)ccc1-c1nc([C@H]2CC[C@](C(=O)O)(C(C)C)C2)n2ccnc(N)c12` [Example 58, (1R,3S)-3-[8-amino-1-(2-ethoxy-4-{[1-methyl-5-(trifluoromethyl)-1H-pyrazol-3-yl]carbamoyl}phenyl)imidazo[1,5-a]pyrazin-3-yl]-1-(1-methylethyl) cyclopentane-carboxylic acid] gave an IC50 [1] of 0.0276 µM and an IC50 ([2]; Homo sapiens, HeLa) of 10 µM.

`C[C@H]1CO[C@@H](c2nc(-c3ccc(C(=O)Nc4cc(C(F)(F)F)ccn4)cc3F)c3c(N)ncc(Cl)n23)CN1[C@H]1CC[C@](C)(C(=O)O)CC1` [Example 200, trans-4-{(2R,5S)-2-[8-amino-5-chloro-1-(2-fluoro-4-{[4-(trifluoromethyl)pyridin-2-yl]carbamoyl}phenyl)imidazo [1,5-a]pyrazin-3-yl]-5-methylmorpholin-4-yl}-1-methylcyclohexanecarboxylic acid] showed an IC50 [1] of 0.00042 µM and an IC50 ([2]; Homo sapiens, HeLa) of 1.69 µM.

Work on `CCOc1cc(C(=O)Nc2cc(C(F)(F)F)ccn2)ccc1-c1nc([C@@H]2CC[C@@](C(=O)O)(C(C)C)C2)n2c(Cl)cnc(N)c12` [Example 109, (1S,3R)-3-[8-amino-5-chloro-1-(2-ethoxy-4-{[4-(trifluoromethyl)pyridin-2-yl]carbamoyl}phenyl)imidazo[1,5-a]pyrazin-3-yl]-1-(1-methylethyl)cyclo-pentanecarboxylic acid] yielded an IC50 [1] of 0.00064 µM and an IC50 ([2]; Homo sapiens, HeLa) of 6.83 µM.

With `CC(C)(C(=O)O)C1CCC(c2nc(-c3ccc(C(=O)Nc4cc(C(F)(F)F)ccn4)cc3)c3c(N)nccn23)C1` (stereo not drawn) [Example 94, 2-{3-[8-amino-1-(4-{[4-(trifluoromethyl)pyridin-2-yl]carbamoyl}phenyl)imidazo[1,5-a]pyrazin-3-yl]cyclopentyl}-2-methylpropanoic acid] the IC50 [1] was 0.0014 µM and the IC50 [2] was 10 µM.

With `CCOc1cc(C(=O)Nc2cc(C(F)(F)F)n(C)n2)ccc1-c1nc([C@@H]2CC[C@](C(=O)O)(C(C)C)C2)n2ccnc(N)c12` [Example 59, (1R,3R)-3-[8-amino-1-(2-ethoxy-4-{[1-methyl-5-(trifluoromethyl)-1H-pyrazol-3-yl]carbamoyl}phenyl)imidazo[1,5-a]pyrazin-3-yl]-1-(1-methylethyl) cyclopentane-carboxylic acid] the IC50 [1] was 0.0241 µM and the IC50 ([2]; Homo sapiens, HeLa) was 10 µM.

For `CC1(C(=O)O)CCC(N2CCO[C@@H](c3nc(-c4ccc(C(=O)Nc5cc(C(F)(F)F)ccn5)cc4)c4c(N)nccn34)C2)CC1` (stereo partly drawn) [Example 176, (R)-4-(2-(8-amino-1-(4-((4-(trifluoromethyl)pyridin-2-yl)carbamoyl)phenyl)imidazo[1,5-a]pyrazin-3-yl)morpholino)-1-methylcyclohexanecarboxylic acid], the IC50 [1] was 0.00049 µM and the IC50 ([2]; Homo sapiens, HeLa) was 1.32 µM.

Work on `CC1(C)[C@@H](c2nc(-c3ccc(C(=O)Nc4cc(C(F)(F)F)ccn4)cc3)c3c(N)nccn23)CC[C@@]1(C)C(=O)O` [Example 77, (1R,3S)-3-[8-amino-1-(4-{[4-(trifluoromethyl)pyridin-2-yl]carbamoyl}phenyl)imidazo[1,5-a]pyrazin-3-yl]-1,2,2-trimethylcyclopentane carboxylic acid] yielded an IC50 [1] of 0.0046 µM and an IC50 ([2]; Homo sapiens, HeLa) of 3.92 µM.

`COc1cc(C(=O)Nc2cc(C(F)(F)F)ccn2)cc(F)c1-c1nc(C23CCC(C(=O)O)(CC2)CC3)n2c(F)cnc(N)c12` [Example 122, 4-[8-amino-5-fluoro-1-(2-fluoro-6-methoxy-4-{[4-(trifluoromethyl)pyridin-2-yl]carbamoyl}phenyl)imidazo[1,5-a]pyrazin-3-yl]bicyclo[2.2.2] octane-1-carboxylic acid] was tested, and the IC50 [1] was 0.00091 µM and the IC50 ([2]; Homo sapiens, HeLa) was 10 µM.

Molecule `Nc1nccn2c(C34CCC(C(=O)O)(CC3)CC4)nc(-c3ccc(C(=O)Nc4cc(C5CC5)ccn4)cc3)c12` [Example 169, 4-(8-amino-1-{4-[(4-cyclopropylpyridin-2-yl)carbamoyl]phenyl}imidazo[1,5-a]pyrazin-3-yl)bicyclo[2.2.2] octane-1-carboxylic acid] has an IC50 [1] of 0.00019 µM and an IC50 ([2]; Homo sapiens, HeLa) of 0.276 µM.

`C[C@@]1(C(=O)O)CCC[C@H](c2nc(-c3ccc(C(=O)Nc4cc(C5CC5)ccn4)cc3)c3c(N)nccn23)C1` [Example 159, (1R,3S)-3-(8-amino-1-{4-[(4-cyclopropylpyridin-2-yl)carbamoyl]phenyl}imidazo[1,5-a]pyrazin-3-yl)-1-methylcyclohexane-carboxylic acid] gave an IC50 [1] of 0.0011 µM and an IC50 ([2]; Homo sapiens, HeLa) of 3.02 µM.

`CCOc1cc(C(=O)Nc2cc(C(F)(F)F)ccn2)ccc1-c1nc(C2(C)CCC(C)(C(=O)O)C2)n2ccnc(N)c12` (stereo not drawn) [Example 22, 3-(8-amino-1-(2-ethoxy-4-((4-(trifluoromethyl)pyridin-2-yl)carbamoyl)phenyl)imidazo[1,5-a]pyrazin-3-yl)-1,3-dimethylcyclopentanecarboxylic acid] showed an IC50 [1] of 0.00066 µM and an IC50 ([2]; Homo sapiens, HeLa) of 6.29 µM.

`CCOc1cc(C(=O)Nc2cc(C(F)(F)F)ccn2)ccc1-c1nc(C23CCC(C(=O)O)(CC2=O)C(=O)C3)n2ccnc(N)c12` (stereo not drawn) [Example 64, 4-[8-amino-1-(2-ethoxy-4-{[4-(trifluoromethyl)pyridin-2-yl]carbamoyl}phenyl)imidazo[1,5-a]pyrazin-3-yl]-2,5-dioxobicyclo[2.2.2] octane-1-carboxylic acid] showed an IC50 [1] of 0.0026 µM and an IC50 ([2]; Homo sapiens, HeLa) of 10 µM.

Work on `Nc1nccn2c(-c3ccc(C(=O)O)nc3)nc(-c3ccc(C(=O)Nc4cc(C(F)(F)F)ccn4)cc3)c12` [Example 29, 5-[8-amino-1-(4-{[4-(trifluoromethyl)pyridin-2-yl]carbamoyl}phenyl)imidazo[1,5-a]pyrazin-3-yl]pyridine-2-carboxylic acid] yielded an IC50 [1] of 0.0113 µM and an IC50 ([2]; Homo sapiens, HeLa) of 7.5 µM.

`COc1cc(C(=O)Nc2cc(C(F)(F)F)ccn2)ccc1-c1nc(C2CCC(C)(C(=O)O)CC2)n2c(Cl)cnc(N)c12` (stereo not drawn) [Example 166, 4-[8-amino-5-chloro-1-(2-methoxy-4-{[4-(trifluoromethyl)pyridin-2-yl]carbamoyl}phenyl)imidazo[1,5-a]pyrazin-3-yl]-1-methylcyclohexane-carboxylic acid] showed an IC50 [1] of 0.0043 µM and an IC50 ([2]; Homo sapiens, HeLa) of 10 µM.

Work on `CCOc1cc(C(=O)Nc2cc(C(F)(F)F)ccn2)c(F)cc1-c1nc(C23CCC(C(=O)O)(CC2)CC3)n2ccnc(N)c12` [Example 149, 4-[8-amino-1-(2-ethoxy-5-fluoro-4-{[4-(trifluoromethyl)pyridin-2-yl]carbamoyl}phenyl)imidazo[1,5-a]pyrazin-3-yl]bicyclo[2.2.2] octane-1-carboxylic acid] yielded an IC50 [1] of 0.00056 µM and an IC50 ([2]; Homo sapiens, HeLa) of 6.87 µM.

In the case of `CC1(C)[C@H](c2nc(-c3ccc(C(=O)Nc4cc(C(F)(F)F)ccn4)cc3Cl)c3c(N)nccn23)CC[C@]1(C)C(=O)O` [Example 129, (1S,3R)-3-[8-amino-1-(2-chloro-4-{[4-(trifluoromethyl)pyridin-2-yl]carbamoyl}phenyl)imidazo[1,5-a]pyrazin-3-yl]-1,2,2-trimethylcyclopentane carboxylic acid], the IC50 [1] is reported as 0.00059 µM and the IC50 ([2]; Homo sapiens, HeLa) is reported as 5.2 µM.

Work on `CC1(C)[C@H](C(=O)O)CC[C@@]1(C)c1nc(-c2ccc(C(=O)Nc3cc(C(F)(F)F)ccn3)cc2)c2c(N)nccn12` [Example 148, (1R,3R)-3-[8-amino-1-(4-{[4-(trifluoromethyl)pyridin-2-yl]carbamoyl}phenyl)imidazo[1,5-a]pyrazin-3-yl]-2,2,3-trimethylcyclopentane carboxylic acid] yielded an IC50 [1] of 0.0072 µM and an IC50 ([2]; Homo sapiens, HeLa) of 10 µM.

Work on `CCOc1cc(C(=O)Nc2cc(C(F)(F)F)ccn2)ccc1-c1nc(C23C4C5C2C2C3C4C52C(=O)O)n2ccnc(N)c12` (stereo not drawn) [Example 71, 4-(8-amino-1-(2-ethoxy-4-((4-(trifluoromethyl)pyridin-2-yl)carbamoyl)phenyl)imidazo[1,5-a]pyrazin-3-yl)cubane-1-carboxylic acid] yielded an IC50 [1] of 0.00065 µM and an IC50 ([2]; Homo sapiens, HeLa) of 2.47 µM.

`CC(C)C1(C(=O)O)CCC(C)(c2nc(-c3ccc(C(=O)Nc4cc(C(F)(F)F)ccn4)cc3)c3c(N)nccn23)C1` (stereo not drawn) [Example 146, 3-[8-amino-1-(4-{[4-(trifluoromethyl)pyridin-2-yl]carbamoyl}phenyl)imidazo[1,5-a]pyrazin-3-yl]-3-methyl-1-(1-methylethyl) cyclopentane-carboxylic acid] gave an IC50 [1] of 0.457 µM and an IC50 [2] of 10 µM.
